pIC50: −log10 of the molar value.
Molecular target: T1, L106-tsLuc (FKBP L106P destabilizing domain fused to luciferase) in HCT116 cells (Homo sapiens, UniProt P62942, F37V)
T1 construct: expressed in transfected cells; host or cells: HCT116
Assay: Luciferase stabilization assay in HCT116 cells stably transfected with L106-tsLuc
Type: cell-based
Settings: 24 hour incubation, 3-fold dilutions, 10 μM to 12 nM, BrightGlo readout, read-out: luciferase activity, expressed in IC50 values
Experimental: The compounds were assayed for their ability to bind to the destabilizing domain of the protein according the following procedure:
HCT116 cells stably transfected with L106-tsLuc were cultured in DMEM media containing 10% fetal bovine serum. 7,000 cells/well were seeded in 100 μL of DMEM/10% FBS media in a 96-well plate and incubated overnight at 37° C. in a humidified, 5% CO2 incubator. Media was replaced with fresh 100 μL of fresh DMEM/10% FBS media containing various concentrations of Shield-1, and the compounds of Example 6 (Ic), and Example 9 (Id) Compounds were added at 3-fold dilutions, concentrations ranging from 10 μM to 12 nM. After 24 hour incubation with the compounds at 37° C. in a humidified, 5% CO2 incubator, luciferase activity was measured in a luminometer after the addition of 100 μL/well BrightGlo reagent (Promega).

T1 sequence (P62942 with tags, fused parts or gaps F37V limits assumed): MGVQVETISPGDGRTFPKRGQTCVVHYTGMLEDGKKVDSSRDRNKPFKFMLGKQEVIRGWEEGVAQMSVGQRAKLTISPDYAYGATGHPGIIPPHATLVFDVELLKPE

Row | pIC50 | Compound
1 | > 8.00 | CC[C@H](C(=O)N1CCCC[C@H]1C(=O)OC(CCc1ccc(OC)c(OC)c1)c1cccc(OCCN2CCOCC2)c1)c1cc(OC)c(OC)c(OC)c1 (stereo partly drawn) [Shield-1, reference compound]
2 | > 5.00 | CCN(C(=O)N1CCCC[C@H]1C(=O)N[C@H](CCc1ccc(OC)c(OC)c1)c1cccc(OCCN2CCOCC2)c1)c1ccccc1 [Example 9 (Id)]
3 | > 7.00 | CC[C@H](C(=O)N1CCCC[C@H]1C(=O)N[C@H](CCc1ccc(OC)c(OC)c1)c1cccc(OCCN2CCOCC2)c1)c1cc(OC)c(OC)c(OC)c1 [Example 6 (Ic)]

From patent US8153785B2, “Stabilizing ligands for regulation of protein function” (Cheminpharma LLC, priority 2009, dated 2012)
